From patent US9421492B2, “Aminopyridine derivatives for removal of hydrogen sulfide from a gas mixture” (Dow Global Technologies LLC, priority 2011, dated 2016)

Assay: Solubility in unbuffered water
Details: unbuffered de-ionized water, 25° C., average of three experiments
Description: The experiment is repeated three times and the average solubilities are reported as weight percent (wt %) in Table 1.

Row | Solubility, wt % [wt %] | Compound
1 | 8 | CN(C)c1ccncc1 [DMAP, 4-dimethylaminopyridine]
2 | 3 | Cc1cc(N(C)C)cc(C)n1 [DMAPL, 2,6-dimethyl-4-(dimethylamino)pyridine]
3 | 5 | Cc1cc(N(C)C)ccn1 [DMAPP, 2-methyl-4-(dimethylamino)pyridine]

Row | Compound | Solubility, wt % [wt %]
4 | 1-hydroxyethyl-4-pyridynyl-pyperazine [HEPP] | 60
